Assays:
corticosterone = assay: Change in plasma corticosterone level after CIS and glutamine supplementation; assay type: in vivo, mouse; settings: STR+Gln vs STR; glutamine 150 mg/kg of feed
Experimental: In the present invention, C57BL/6 male mice (7-weeks old, KOATECH, South Korea) were kept under standard conditions (i.e., temperature of 22 to 24° C., humidity of 50 to 70%, and 12-hour light/dark cycle with lighting on 6 AM), and the animals were allowed to have free access to diets and water. The animals used for the present invention were handled according to the protocol (GNU-161128-M0068) acknowledged by Gyeongsang National University Institutional Animal Care and Use Committee (GNU IACUC), which follows the guidelines of National Institutes of Health (NIH, Bethesda, MD, USA). Control (CTL) is a group which received normal diet (common diet with nutritional balance) without any stress, CTL+Gln group is a normal diet group supplemented with glutamine (150 mg/kg of feed) and without any stress, STR is a normal diet group under stress, and STR+Gln group is a normal diet group supplemented with glutamine (150 mg/kg of feed) under stress. The stress group (STR) was individually brought by force to a restrainer for 2 hours every day (i.e., between 2 PM and 4 PM) so that the animals are applied with chronic immobilization stress for 15 days.

[1] = system: C57BL/6 male mice applied with chronic immobilization stress; assay: Behavior analysis by ORT and OLT after CIS and glutamine supplementation; assay type: in vivo, mouse; settings: STR+Gln vs STR; glutamine 150 mg/kg of feed, after 15 days stress
Experimental: Control (CTL) is a group which received normal diet (common diet with nutritional balance) without any stress, CTL+Gln group is a normal diet group supplemented with glutamine (150 mg/kg of feed) and without any stress, STR is a normal diet group under stress, and STR+Gln group is a normal diet group supplemented with glutamine (150 mg/kg of feed) under stress. The stress group (STR) was individually brought by force to a restrainer for 2 hours every day (i.e., between 2 PM and 4 PM) so that the animals are applied with chronic immobilization stress for 15 days. By using the cohorts of Example 1, behavior analysis was carried out. After applying the stress for 15 days, behavior analysis was immediately carried out. ORT includes three separate sessions, i.e., habituation, familiarization, and test. During 2 days of the habituation, the animals were allowed to stay in an empty open space for 10 minutes a day. After the habituation, they were subjected to familiarization by placing two identical objects in the open space. Mice of each test group were allowed to explore freely the object for 10 minutes. […] Discrimination index (DI) in ORT was then calculated according to the following formula (1). […] Discrimination index (DI) in OLT was then calculated according to the following formula (2). […]

nNOS = assay: Double-IHC protein expression after CIS and glutamine supplementation: nNOS; assay type: in vivo, mouse; settings: microglial cells in infralimbic cortex and hippocampal CA1 region; glutamine supplementation diet vs stress group
Experimental: Control (CTL) is a group which received normal diet (common diet with nutritional balance) without any stress, CTL+Gln group is a normal diet group supplemented with glutamine (150 mg/kg of feed) and without any stress, STR is a normal diet group under stress, and STR+Gln group is a normal diet group supplemented with glutamine (150 mg/kg of feed) under stress. The stress group (STR) was individually brought by force to a restrainer for 2 hours every day (i.e., between 2 PM and 4 PM) so that the animals are applied with chronic immobilization stress for 15 days. To determine the specific changes in the brain tissues after glutamine supplementation, double staining was carried out with a cell marker so that the proteins related to a change in ROS/RNS content (i.e., iNOS; nNOS; and p47phox and p67phox as a subunit of NOX) with cell markers are analyzed by double-IHC (immunohistochemistry). Twenty-four hours after applying the last stress, the mouse was anesthetized with avertin, and perfused with PBS (pH 7.4) and 4% formaldehyde. After that, the brain was removed, fixed, and cut to a thickness with 40 μm. […]

[2] = system: mouse with cognitive impairment caused by chronic immobilization stress (CIS); assay: ORT-OLT after oral administration of glutamine following cognitive impairment caused by CIS; assay type: in vivo; settings: 2 weeks CIS, then oral glutamine 45 mg/kg bodyweight/day for 1 week
Experimental: After the oral administration of glutamine following an occurrence of cognitive impairment that has been caused by chronic immobilization stress (CIS), the effect of treating cognitive impairment was examined. Two weeks after applying CIS, the cognitive ability was tested by ORT-OLT. After that, while orally administering glutamine for 1 week (45 mg glutamine/kg bodyweight/day), a change in cognitive ability was examined from Day 4 (i.e., ORT-OLT were carried out from Day 4 to Day 7).

## NC(=O)CC[C@H](N)C(=O)O [glutamine]
corticosterone
  plasma corticosterone level: statistically significant decrease
[1]
  discrimination index (DI) in OLT: higher DI
  discrimination index (DI) in ORT: higher DI
nNOS
  expression amount of nNOS: statistically significant decrement
[2]
  cognitive ability in OLT: restored to the level of stress-free control group
  cognitive ability in ORT: restored to the level of stress-free control group
